Test results published in the NIST ThermoML archive (doi:10.1021/je034251+).

Conditions: for mass density: isochoric method

COC [dimethyl ether]
Conditions | Critical temperature [K] | mass density [kg/m3]
301.82 K, Liquid | – | 654.54
320.08 K, Liquid | – | 623.9
330.63 K, Liquid | – | 604.34
339.47 K, Liquid | – | 585.82
347.34 K, Liquid | – | 567.13
359 K, Liquid | – | 540.45
365.69 K, Liquid | – | 522.25
366.69 K, Gas | – | 66.75
372.15 K, Liquid | – | 503.13
378.81 K, Liquid | – | 479.19
380.95 K, Gas | – | 96.42
384.5 K, Liquid | – | 454.66
390.86 K, Gas | – | 130.05
393.65 K, Liquid | – | 405.87
396.06 K, Gas | – | 161.3
398.21 K, Liquid | – | 361.58
399.34 K, Gas | – | 203.55
400.32 K, Liquid | – | 299.12
400.35 K, Gas | – | 253.84
400.35 K, Liquid | – | 285.01
400.36 K, Gas | – | 264.02
400.36 K, Liquid | – | 278.92
400.38 K, Liquid | – | 276.19
Liquid, Visual observation in an unstirred cell | 400.38 | –

Conditions | Critical density [kg/m3]
Liquid | 272
